According to US7897620B2, “Methods of using anti-inflammatory compounds” (Cambridge Enterprise Limited, priority 2007, dated 2011):

Tests used:
[1] = tested on: lung leukocyte recruitment and T-helper cell polarisation; assay: Ovalbumin-induced lung inflammation model of asthma (BAL leukocyte count, splenocyte Th1/Th2 ratio); type: in vivo, Brown Norway rat; conditions: rat, 0.3 mg/kg daily oral
Method: Adult Brown Norway rats (200-300 g body weight; n=10 per group) were sensitised by a single intraperitoneal injection of 0.1 mg Ovalbumin on day 0. Each rat then received an intratracheal challenge with a solution of 1% ovalbumin (w/v) on day 8, and with 2% ovalbumin (w/v) on days 15, 18 and 21. The animals were then sacrificed 3 hours after the final challenge on day 21. Note that ovalbumin (Sigma; purest available grade) was made endotoxin-free by passage over EndoTrap™ Red columns (purchased from Cambrex; used in accordance with the manufacturer's instructions), and the endotoxin level was confirmed as <5 EU/mg protein using the LAL assay (QCL-1000™; Cambrex; performed in accordance with the manufacturer's instructions; 1 mg of standard endotoxin contains ˜900,000 EU/mg). […]
On sacrifice, total lung leukocyate recruitment was assessed by performing a broncheoalveolar lavage (BAL) using 4 lots of 3 ml sterile phosphate-buffered saline introduced through a tracheal cannula. For each animal, the BAL washes were combined, and the total cell population counted (using a haemocytometer). […]
The spleen was also removed from each […] and placed in RPMI+10% FCS+antibiotics. […] The resulting cell suspension was then centrifuged (328 g; 5 mins) and washed in RPMI+10% FCS+antibiotics, before being resuspended in fresh media and counted using a haemocytometer. […]

[2] = Water solubility (observation); type: physicochemical

Question: What does the source list for `CC(C)(C)C(=O)N[C@H]1CCCNC1=O` [Compound (I′), 3-(2′,2′-dimethylpropanoylamino)-tetrahydropyridin-2-one]?
Answer: Th2 polarisation (Th1/Th2 ratio of CD4+ splenocytes) [1]: completely abolishes the Th2 polarisation; water solubility [2]: extremely water soluble
